Test results from paper PMC9928118, “Funneling modulatory peptide design with generative models: Discovery and characterization of disruptors of calcineurin protein-protein interactions” (PLOS Computational Biology, 2023).
Each block holds one sequence with its values, some of them ahead of it.

Tested on: GST-tagged Cn
Assay: PEPperPRINT peptide microarray binding assay with GST-tagged Cn
Source text: We then estimated in-silico the binding strength of the various peptides to Cn by template-based docking followed by flexible backbone refinement using Modeller and PepCrawler (Figs 4 and S4). In parallel, we performed a medium-throughput qualitative binding assay using a PEPperPRINT peptide microarray to evaluate the direct binding of Cn to selected peptides (Figs 4 and S5, S3 Data).
Fig 4 Medium-throughput filtering by structural modeling and microarray screening. (a) Depiction of the structural modeling protocol: after alignment to the known PxIxIT binding site, an efficient flexible backbone structure refinement algorithm is applied to estimate the docking energy. […] (c) Coefficients of the equivalent single-site model fitted by sparse linear regression, shown in weight logo representation. […] Colors indicate physical property (black = hydrophobic, red = negatively charged, etc.). (d) Per-gene distribution of docking scores across natural fragments (lower is better). […] (e) Overview of the microarray screening. Peptides are printed on the chip (two circles per peptide). After pouring of Cn and subsequent washing, fluorescent-tagged, a Cn-targeting antibody is overlaid and an image is taken. Fluorescent spots indicate strong Cn binders. (f) Scatter plot of the sequence likelihood (normalized by length, higher is better) against fluorescence level (higher is better, see Methods for details of the data analysis).
In parallel, selected peptides were tested for Cn binding on a chip microarray (PEPperPRINT). 786 peptides were printed on the chip and were incubated with GST-tagged Cn overnight at 4°C. Following extensive washing, binding was detected by applying a fluorescently labeled (Alexa-Fluor 647) GST antibody. […] The experiment was repeated five times, and Z-normalized fluorescence levels were determined following post-processing of the raw data (Methods, S5A, S5B and S5C Fig).
The peptide array was prepared as a custom array pepper chip (PEPperPRINT). For binding detection, 1mg/ml GST-tagged Cn was incubated overnight on the microarray at 4°C. Following extensive washing, fluorescently labeled (Alexa-Fluor 647) GST-antibody. […] The experiment was repeated five times. Each scan was analyzed as follows: a grid was overlaid using the border HA markers to determine regions of interest (ROI) for each peptide (two ROIs per peptide) and the logarithm of the average fluorescence intensity was computed for each ROI. […] To remove spatial artifacts, a position-dependent baseline fluorescence was fitted using a second-order polynomial, and subtracted to the fluorescence. Fluorescence levels were next averaged over the two ROI for each peptide and Z-normalized. […] The Z-scores were averaged over the five repetitions to yield one fluorescence score per peptide.

[1] = max over the spots listed under Location on chip
[2] = mean over the spots listed under Location on chip
[3] = GST-tagged Cn, max over the chip locations
[4] = GST-tagged Cn, mean over the chip locations
[5] = max over the chip locations listed for the peptide (two spots)
[6] = mean over the chip locations listed for the peptide (two spots)
[7] = GST-tagged Cn, max over the spots named in Location on chip
[8] = GST-tagged Cn, mean over the spots named in Location on chip
[9] = GST-tagged Cn, max over the chip spots listed under Location on chip
[10] = GST-tagged Cn, mean over the chip spots listed under Location on chip
[11] = GST-tagged Cn, max over the spots on the chip (two locations)
[12] = GST-tagged Cn, mean over the spots on the chip (two locations)

Chip Fluorescence (max) [1]: 3.317
Chip Fluorescence (mean) [2]: 1.923
Sequence: AAGAGVGIVITVTEAE [SeqRBMlowT_180]

Chip Fluorescence (max) [3]: 0.05556
Chip Fluorescence (mean) [4]: -1.148
Sequence: ADEAAPEIVVSKPEHN [SeqRBMlowT_7698]

Chip Fluorescence (max) [3]: 0.161
Chip Fluorescence (mean) [4]: -1.962
Sequence: ADEAGPEIVITPTELP [SeqRBMlowT_3142]

Chip Fluorescence (max) [5]: 3.577
Chip Fluorescence (mean) [6]: 1.112
Sequence: ADEAGVQIVITVTELP [SeqRBMlowT_1446]

Chip Fluorescence (max) [1]: 2.999
Chip Fluorescence (mean) [2]: 0.8947
Sequence: ADEAIPEITITPAELP [SeqRBMlowT_424]

Chip Fluorescence (max) [5]: 17.6628
Chip Fluorescence (mean) [6]: 2.99
Sequence: ADEAIPEITITSAELP [SeqRBMlowT_2514]

Chip Fluorescence (max) [5]: 18.5398
Chip Fluorescence (mean) [6]: 3.2425
Sequence: ADEAIPEIVISKPEEP [SeqRBMlowT_2534]

Sequence: ADEAIPEIVISPPELP [SeqRBMlowT_1959]
Chip Fluorescence (max) [1]: 3.309
Chip Fluorescence (mean) [2]: 0.2863

Sequence: ADEAIPKIVIHPPEEP [SeqRBMlowT_1972]
Chip Fluorescence (max) [1]: 3.233
Chip Fluorescence (mean) [2]: -0.1428

Chip Fluorescence (max) [7]: 1.463
Chip Fluorescence (mean) [8]: 0.5736
Sequence: ADEANPEITITPAELP [SeqRBMlowT_369]

Chip Fluorescence (max) [5]: 6.273
Chip Fluorescence (mean) [6]: 1.325
Sequence: ADEANPEITITPPELP [SeqRBMlowT_372]

Chip Fluorescence (max) [9]: 0.3864
Chip Fluorescence (mean) [10]: -0.7137
Sequence: ADEANPEITVTPAELP [SeqRBMlowT_396]

Chip Fluorescence (max) [3]: -0.527
Chip Fluorescence (mean) [4]: -1.133
Sequence: ADEANPQITITPAELP [SeqRBMlowT_1252]

Chip Fluorescence (max) [5]: 16.2722
Chip Fluorescence (mean) [6]: 1.499
Sequence: ADEANPRITITPAELP [SeqRBMlowT_3131]

Chip Fluorescence (max) [5]: 5.264
Chip Fluorescence (mean) [6]: 0.1816
Sequence: ADEAPPEITITPAELP [SeqRBMlowT_445]

Chip Fluorescence (max) [5]: 3.784
Chip Fluorescence (mean) [6]: 1.112
Sequence: ADEAPPRITITPYELP [SeqRBMlowT_5415]

Chip Fluorescence (max) [7]: 1.734
Chip Fluorescence (mean) [8]: -0.1242
Sequence: ADEAQPGIVVHVCELP [SeqRBMlowT_119]

Chip Fluorescence (max) [5]: 3.902
Chip Fluorescence (mean) [6]: 0.5727
Sequence: ADEASPRIVITPPELP [SeqRBMlowT_1222]

Chip Fluorescence (max) [1]: 2.637
Chip Fluorescence (mean) [2]: 0.3175
Sequence: ADEAVPEITITPAELP [SeqRBMlowT_1267]

Chip Fluorescence (max) [11]: 1.31
Chip Fluorescence (mean) [12]: -0.2973
Sequence: ADGAGVGIVITVTEAE [SeqRBMlowT_1411]

Chip Fluorescence (max) [9]: 0.9604
Chip Fluorescence (mean) [10]: 0.1044
Sequence: ADQELSSFQPFYIEAS [Seqshuffled_9636]

Chip Fluorescence (max) [9]: 0.739
Chip Fluorescence (mean) [10]: -0.5185
Sequence: AFLATPSIIIHPPEGP [SeqRBM_2675]

Chip Fluorescence (max) [1]: 2.618
Chip Fluorescence (mean) [2]: 0.6288
Sequence: AGCTVNNYSTNFAEND [Seqshuffled_9821]

Sequence: AHVSVPVIVVSPGETI [SeqRBM_3486]
Chip Fluorescence (max) [3]: 0.2381
Chip Fluorescence (mean) [4]: -0.4942

Chip Fluorescence (max) [7]: 1.452
Chip Fluorescence (mean) [8]: 1.232
Sequence: AINASPEIVVGYDELP [SeqRBM_6435]

Chip Fluorescence (max) [11]: 1.098
Chip Fluorescence (mean) [12]: -0.565
Sequence: AKDDPPKIQVHPPEED [SeqRBMlowT_9786]

Chip Fluorescence (max) [7]: 1.862
Chip Fluorescence (mean) [8]: -0.1462
Sequence: AKMAPPAINIDFAPPN [SeqRBMlowT_7690]

Chip Fluorescence (max) [7]: 1.576
Chip Fluorescence (mean) [8]: -0.4054
Sequence: APSKITEVVVHECEVL [SeqRBM_4402]

Chip Fluorescence (max) [7]: 1.655
Chip Fluorescence (mean) [8]: -0.3843
Sequence: APSSWPSIVVSPPELN [SeqRBM_1086]

Chip Fluorescence (max) [9]: 0.4327
Chip Fluorescence (mean) [10]: -0.8945
Sequence: AQMAPPAINIDFAPTN [SeqRBMlowT_7215]

Chip Fluorescence (max) [9]: 0.6167
Chip Fluorescence (mean) [10]: -0.6535
Sequence: AQSSQPPISTKYDARG [Seqshuffled_9482]

Chip Fluorescence (max) [11]: 1.0396
Chip Fluorescence (mean) [12]: 0.6258
Sequence: ARPPNAAFVLDQETTY [Seqshuffled_9990]

Chip Fluorescence (max) [5]: 4.921
Chip Fluorescence (mean) [6]: 0.2408
Sequence: ARSFCPHRQVLSCKPK [SeqRBM_8304]

Chip Fluorescence (max) [1]: 3.085
Chip Fluorescence (mean) [2]: 0.192
Sequence: ASALSPRIEITPSHEL [SeqNFATC1_Alligator_mississippiensis]

Chip Fluorescence (max) [1]: 2.587
Chip Fluorescence (mean) [2]: -0.184
Sequence: ASDDIPTVVIHPPEED [SeqSLC4A7_Pan_troglodytes]

Chip Fluorescence (max) [5]: 4.3558
Chip Fluorescence (mean) [6]: -0.1882
Sequence: ASEAAPTINIDFAPNP [SeqRBMlowT_1832]

Chip Fluorescence (max) [11]: 1.116
Chip Fluorescence (mean) [12]: -0.403
Sequence: ASEANPEITITPAELP [SeqRBMlowT_410]

Chip Fluorescence (max) [11]: 0.9983
Chip Fluorescence (mean) [12]: 0.1363
Sequence: ASGLSPRIEITPSHEL [SeqNFATC2_Homo_sapiens]

Chip Fluorescence (max) [3]: -0.1231
Chip Fluorescence (mean) [4]: -1.5167
Sequence: ASMSPPCINIDYAPIS [SeqRBM_1607]

Chip Fluorescence (max) [9]: 0.501
Chip Fluorescence (mean) [10]: -0.7597
Sequence: ASSSAPEIVVSKPEHN [SeqKCNN2_Pan_troglodytes]

Chip Fluorescence (max) [3]: -0.0111
Chip Fluorescence (mean) [4]: -1.452
Sequence: ASTSTFPQQQTAHKKQ [SeqBOI2_Podospora_anserina]

Chip Fluorescence (max) [5]: 15.1807
Chip Fluorescence (mean) [6]: 1.275
Sequence: ASVSNPEITVTSAETE [SeqRBM_9489]

Chip Fluorescence (max) [11]: 1.1168
Chip Fluorescence (mean) [12]: 0.4617
Sequence: ATDNQPGIVVHICADM [SeqRCN1_Daphnia_magna]

Chip Fluorescence (max) [11]: 1.045
Chip Fluorescence (mean) [12]: 0.2093
Sequence: ATDTTPSVVVHVCESD [SeqRCN1_Macaca_mulatta]

Chip Fluorescence (max) [5]: 4.111
Chip Fluorescence (mean) [6]: 0.8256
Sequence: ATPGTFPRGDGAHKKQ [SeqRBMlowT_5886]

Chip Fluorescence (max) [3]: -1.8391
Chip Fluorescence (mean) [4]: -2.255
Sequence: ATSEQPTFDLSSAMPT [SeqRBM_6206]

Chip Fluorescence (max) [9]: 0.6271
Chip Fluorescence (mean) [10]: -0.8819
Sequence: ATSFVPQLASTLFSLW [SeqRBM_1383]

Chip Fluorescence (max) [3]: -0.3986
Chip Fluorescence (mean) [4]: -1.022
Sequence: ATSGTFPQTDGSHKKQ [SeqRBMlowT_7701]

Chip Fluorescence (max) [7]: 1.785
Chip Fluorescence (mean) [8]: -0.4136
Sequence: ATSGTFPQTEGSHKKQ [SeqRBMlowT_5854]

Chip Fluorescence (max) [1]: 2.763
Chip Fluorescence (mean) [2]: 0.3608
Sequence: AYPGTYYGQDGSHKKQ [SeqRBM_820]

Chip Fluorescence (max) [5]: 8.388
Chip Fluorescence (mean) [6]: 2.901
Sequence: CDHMGLDIVIFVTELC [SeqRBM_1060]

Chip Fluorescence (max) [11]: 1.031
Chip Fluorescence (mean) [12]: -0.08931
Sequence: DAHACAVLGIGSFSLL [SeqRBM_9753]

Chip Fluorescence (max) [5]: 3.639
Chip Fluorescence (mean) [6]: 1.593
Sequence: DRMAQDSMGWCRECLM [Seqrandom_9951]

Chip Fluorescence (max) [9]: 0.9715
Chip Fluorescence (mean) [10]: -0.655
Sequence: DSHTVDPIPINPHSAV [SeqRBM_5538]

Chip Fluorescence (max) [5]: 3.74
Chip Fluorescence (mean) [6]: 0.5914
Sequence: DSLEGATIVITLTEGK [SeqRBM_8933]

Chip Fluorescence (max) [3]: -0.1629
Chip Fluorescence (mean) [4]: -1.069
Sequence: DSLKIPQVRMRIDSAT [SeqRBM_3711]

Chip Fluorescence (max) [1]: 2.584
Chip Fluorescence (mean) [2]: -0.1117
Sequence: DSLYQEVLGIGSFSLA [SeqCRZ1_Hypocrea_virens]

Chip Fluorescence (max) [9]: 0.6781
Chip Fluorescence (mean) [10]: 0.06214
Sequence: DSLYQEVLGIRSFSLS [SeqRBM_8930]

Chip Fluorescence (max) [1]: 2.624
Chip Fluorescence (mean) [2]: 0.4288
Sequence: DSSANPEITITPAELP [SeqRBMlowT_4460]

Chip Fluorescence (max) [5]: 3.766
Chip Fluorescence (mean) [6]: 0.1629
Sequence: DTLWIGSGTVTDSGNY [SeqRBM_1220]

Chip Fluorescence (max) [7]: 1.867
Chip Fluorescence (mean) [8]: 0.7201
Sequence: DTYGTASLARELPSPK [Seqshuffled_9914]

Chip Fluorescence (max) [9]: 0.6546
Chip Fluorescence (mean) [10]: -0.1589
Sequence: DVSDSPDVDLKIPQAR [SeqRBM_5022]

Chip Fluorescence (max) [1]: 2.944
Chip Fluorescence (mean) [2]: 0.8153
Sequence: EDGKVPSIEIDVREYA [SeqRBM_7430]

Chip Fluorescence (max) [5]: 3.895
Chip Fluorescence (mean) [6]: 0.1296
Sequence: EGKMDPELYISTVEAQ [SeqRBM_3392]

Chip Fluorescence (max) [3]: -0.7132
Chip Fluorescence (mean) [4]: -1.058
Sequence: EPEMSPSIFILKAHTT [SeqRBM_1051]

Chip Fluorescence (max) [1]: 2.7221
Chip Fluorescence (mean) [2]: 0.53
Sequence: ERWSIGFGDMFCNQFK [Seqrandom_9989]
